# Key:
# alcohol preferring rats [1] = test: Alcohol Preferring Rats, Study A: Chronic Administration (14 days); format: in vivo, rat; conditions: 30 mg/kg once a day
# Description: (§1) Adult male selectively-bred alcohol preferring rats were used in this study. The selectively bred alcohol preferring rats are widely used to study the suppressant effects of compounds on voluntary alcohol intake (Faren et al. 2000; Rezvani et al, 1990, 1991, 1992a, 1992b, 1999, 2000, 2002; 2003; Murphy et al, 1988; Overstreet et al., 1992, 1999; Li and McBride, 1995).
# (§2) The rats were housed individually under a constant room temperature of 22±1° C. and 12:12 light-dark cycle (7:00-19:00, dark). Animals were fed Agway Prolab Rat/Mouse/Hamster 3000 formula and water ad libitum.
# (§3) Alcohol intake was determined using a standard two-bottle choice method (Murphy et al. 1988; McBride et al. 1990; Rezvani et al. 1990, 1991, 1993, 1995, 1997, Rezvani et al., 2007a,b; Rezvani and Grady, 1994). Animals were first given free access to water in a graduated Richter tube for 1 day. Next, they were given access to only a solution of 10% (v/v) ethanol for 3 consecutive days. During this period the animals became accustomed to drinking from Richter tubes and to the taste and pharmacological effects of alcohol. Thereafter, the animals were given free access to both water and a solution of 10% alcohol for 4 consecutive weeks and throughout of the study. The animals continued to have free access to food. Water and alcohol intake were recorded at 6 and 24 hour.
# After establishment of a reliable baseline for alcohol, and water intake, the animals were randomly assigned to a treatment regimen. The animals were administered once a day, via gavage, either vehicle (0.5% methylcellulose) or compound of formula (I-A) (at 30 mg/kg) or naltrexone (at 20 mg/kg) for 14 consecutive days. A group of 6-7 animals was used for each treatment. Alcohol and water intake was recorded at 6 hrs and 24 hrs after administration.
# (§4) The results are presented as a means ±SEM. Alcohol intake (g/kg) was calculated by multiplying the volume of alcohol consumed in ml by 10% and 0.7893 (ethanol density)/body weight in kg. Alcohol preference, expressed as percentage was calculated as (volume of alcohol consumed in ml/total fluid intake in ml)×100 (Rezvani and Grady, 1994; Rezvani et al., 2007a). Statistical differences between drug-treated and control groups was determined by using ANOVA and Tukey Student's t test for multiple comparison.
# The results from Study A provide a measure of whether or not the animals develop tolerance to the suppressant effects of the test compound following a chronic treatment. In Tables 5-8 below, the abbreviation “(I-A)” stands for the compound of formula (I-A), the abbreviation “Naltx” stands for naltrexone, and the abbreviation “EtOH” stands for ethanol.
# alcohol preferring rats [2] = test: Alcohol Preferring Rats, Study B: Post-Deprivation Effect; format: in vivo, rat; conditions: 30 mg/kg; for % EtOH / Alcohol: 45 min before re-exposure to alcohol after 72 hours deprivation
# Description: as §1, §2, §3
# Following Study A, the rats were maintained on alcohol for 15 days without drug. On day 16 post-gavage, rats were put on food and water only for 72 hours. On the next day, 45 min before re-exposure to alcohol, the rats were treated with vehicle (0.5% methylcellulose), naltrexone (at 20 mg/kg) or compound of formula (I-A) (at 30-mg/kg). Alcohol intake was then measured at 1, 3, 6 and 24 hr after exposure.
# as §4, with “means.” for “means ±SEM.”
# The results from Study B provide a measure of the effectiveness of the test compound to suppress post-deprivation-induced craving for alcohol.
structure (smiles),measurement,setting,value
"Cc1cccc2cccc(CN3CCC4(CC3)C(=O)N(C[C@H](O)CN)CN4c3ccc(F)cc3)c12 [Cmpd (I-A), 3-(3-amino-2-(R)-hydroxy-propyl)-1-(4-fluoro-phenyl)-8-(8-methyl-naphthalen-1-ylmethyl)-1,3,8-triazaspiro[4.5]decan-4-one]",Alcohol Intake,"alcohol preferring rats [1]; gavage, Day 1, 6 Hour Intake",1.31 g/kg
same,Alcohol Preference,"alcohol preferring rats [1]; gavage, Day 1, 6 Hour Intake",62 % EtOH
same,Alcohol Intake,"alcohol preferring rats [1]; gavage, Day 1, 24 Hour Intake",4.04 g/kg
same,Alcohol Preference,"alcohol preferring rats [1]; gavage, Day 1, 24 Hour Intake",72 % EtOH
same,Alcohol Intake,"alcohol preferring rats [1]; gavage, Day 2, 6 Hour Intake",1.54 g/kg
same,Alcohol Preference,"alcohol preferring rats [1]; gavage, Day 2, 6 Hour Intake",48 % EtOH
same,Alcohol Intake,"alcohol preferring rats [1]; gavage, Day 2, 24 Hour Intake",3.71 g/kg
same,Alcohol Preference,"alcohol preferring rats [1]; gavage, Day 2, 24 Hour Intake",56 % EtOH
same,Alcohol Intake,"alcohol preferring rats [1]; gavage, Day 3, 6 Hour Intake",1.71 g/kg
same,Alcohol Preference,"alcohol preferring rats [1]; gavage, Day 3, 6 Hour Intake",53 % EtOH
same,Alcohol Intake,"alcohol preferring rats [1]; gavage, Day 3, 24 Hour Intake",3.39 g/kg
same,Alcohol Preference,"alcohol preferring rats [1]; gavage, Day 3, 24 Hour Intake",54 % EtOH
same,Alcohol Intake,"alcohol preferring rats [1]; gavage, Day 4, 6 Hour Intake",1.24 g/kg
same,Alcohol Preference,"alcohol preferring rats [1]; gavage, Day 4, 6 Hour Intake",52 % EtOH
same,Alcohol Intake,"alcohol preferring rats [1]; gavage, Day 4, 24 Hour Intake",2.68 g/kg
same,Alcohol Preference,"alcohol preferring rats [1]; gavage, Day 4, 24 Hour Intake",50 % EtOH
same,Alcohol Intake,"alcohol preferring rats [1]; gavage, Day 5, 6 Hour Intake",1.54 g/kg
same,Alcohol Preference,"alcohol preferring rats [1]; gavage, Day 5, 6 Hour Intake",39 % EtOH
same,Alcohol Intake,"alcohol preferring rats [1]; gavage, Day 5, 24 Hour Intake",2.97 g/kg
same,Alcohol Preference,"alcohol preferring rats [1]; gavage, Day 5, 24 Hour Intake",47 % EtOH
same,Alcohol Intake,"alcohol preferring rats [1]; gavage, Day 6, 6 Hour Intake",1.04 g/kg
same,Alcohol Preference,"alcohol preferring rats [1]; gavage, Day 6, 6 Hour Intake",60 % EtOH
same,Alcohol Intake,"alcohol preferring rats [1]; gavage, Day 6, 24 Hour Intake",2.99 g/kg
same,Alcohol Preference,"alcohol preferring rats [1]; gavage, Day 6, 24 Hour Intake",59 % EtOH
same,Alcohol Intake,"alcohol preferring rats [1]; gavage, Day 7, 6 Hour Intake",1.34 g/kg
same,Alcohol Preference,"alcohol preferring rats [1]; gavage, Day 7, 6 Hour Intake",65 % EtOH
same,Alcohol Intake,"alcohol preferring rats [1]; gavage, Day 7, 24 Hour Intake",3.60 g/kg
same,Alcohol Preference,"alcohol preferring rats [1]; gavage, Day 7, 24 Hour Intake",76 % EtOH
same,Alcohol Intake,"alcohol preferring rats [1]; gavage, Day 8, 6 Hour Intake",1.63 g/kg
same,Alcohol Preference,"alcohol preferring rats [1]; gavage, Day 8, 6 Hour Intake",61 % EtOH
same,Alcohol Intake,"alcohol preferring rats [1]; gavage, Day 8, 24 Hour Intake",3.97 g/kg
same,Alcohol Preference,"alcohol preferring rats [1]; gavage, Day 8, 24 Hour Intake",70 % EtOH
same,Alcohol Intake,"alcohol preferring rats [1]; gavage, Day 9, 6 Hour Intake",1.84 g/kg
same,Alcohol Preference,"alcohol preferring rats [1]; gavage, Day 9, 6 Hour Intake",67 % EtOH
same,Alcohol Intake,"alcohol preferring rats [1]; gavage, Day 9, 24 Hour Intake",3.78 g/kg
same,Alcohol Preference,"alcohol preferring rats [1]; gavage, Day 9, 24 Hour Intake",68 % EtOH
same,Alcohol Intake,"alcohol preferring rats [1]; gavage, Day 10, 6 Hour Intake",1.38 g/kg
same,Alcohol Preference,"alcohol preferring rats [1]; gavage, Day 10, 6 Hour Intake",72 % EtOH
same,Alcohol Intake,"alcohol preferring rats [1]; gavage, Day 10, 24 Hour Intake",3.00 g/kg
same,Alcohol Preference,"alcohol preferring rats [1]; gavage, Day 10, 24 Hour Intake",73 % EtOH
same,Alcohol Intake,"alcohol preferring rats [1]; gavage, Day 11, 6 Hour Intake",1.17 g/kg
same,Alcohol Preference,"alcohol preferring rats [1]; gavage, Day 11, 6 Hour Intake",67 % EtOH
same,Alcohol Intake,"alcohol preferring rats [1]; gavage, Day 11, 24 Hour Intake",2.86 g/kg
same,Alcohol Preference,"alcohol preferring rats [1]; gavage, Day 11, 24 Hour Intake",81 % EtOH
same,Alcohol Intake,"alcohol preferring rats [1]; gavage, Day 12, 6 Hour Intake",1.07 g/kg
same,Alcohol Preference,"alcohol preferring rats [1]; gavage, Day 12, 6 Hour Intake",51 % EtOH
same,Alcohol Intake,"alcohol preferring rats [1]; gavage, Day 12, 24 Hour Intake",3.03 g/kg
same,Alcohol Preference,"alcohol preferring rats [1]; gavage, Day 12, 24 Hour Intake",69 % EtOH
same,Alcohol Intake,"alcohol preferring rats [1]; gavage, Day 13, 6 Hour Intake",0.96 g/kg
same,Alcohol Preference,"alcohol preferring rats [1]; gavage, Day 13, 6 Hour Intake",45 % EtOH
same,Alcohol Intake,"alcohol preferring rats [1]; gavage, Day 13, 24 Hour Intake",2.67 g/kg
same,Alcohol Preference,"alcohol preferring rats [1]; gavage, Day 13, 24 Hour Intake",67 % EtOH
same,Alcohol Intake,"alcohol preferring rats [1]; gavage, Day 14, 6 Hour Intake",0.55 g/kg
same,Alcohol Preference,"alcohol preferring rats [1]; gavage, Day 14, 6 Hour Intake",28 % EtOH
same,Alcohol Intake,"alcohol preferring rats [1]; gavage, Day 14, 24 Hour Intake",1.91 g/kg
same,Alcohol Preference,"alcohol preferring rats [1]; gavage, Day 14, 24 Hour Intake",45 % EtOH
same,Alcohol Intake,"alcohol preferring rats [1]; at 6 and 24 hours, over the course of 14 days",showed a decrease in alcohol intake
same,Tolerance to the alcohol reducing effects,alcohol preferring rats [1]; over the 14 days of administration,did not develop tolerance
same,% EtOH,alcohol preferring rats [2]; 1 Hour Post Dosing,84%
same,Alcohol,alcohol preferring rats [2]; 1 Hour Post Dosing,0.39 g/kg
same,% EtOH,alcohol preferring rats [2]; 3 Hours Post Dosing,75%
same,Alcohol,alcohol preferring rats [2]; 3 Hours Post Dosing,0.72 g/kg
same,% EtOH,alcohol preferring rats [2]; 6 Hours Post Dosing,72%
same,Alcohol,alcohol preferring rats [2]; 6 Hours Post Dosing,1.48 g/kg
same,% EtOH,alcohol preferring rats [2]; 24 Hours Post Dosing,73%
same,Alcohol,alcohol preferring rats [2]; 24 Hours Post Dosing,3.72 g/kg
same,"Alcohol intake and preference, post-deprivation","alcohol preferring rats [2]; at 1, 3, 6 and 24 hours post dosing",showed a decrease in alcohol intake and preference

# From patent publication US20080200492A1, “METHODS FOR THE TREATMENT OF ALCOHOL ABUSE, ADDICTION AND DEPENDENCY” (priority 2006, published 2008)
